Assay results published in patent publication US10301596B2, “Method of repairing damaged chondrocytes via low-dose irradiation” (KOREA INSTITUTE OF RADIOLOGICAL & MEDICAL SCIENCES, priority 2013, dated 2019).

How the values were obtained:
Assay type in all cases: cell-based
NF-κB = NF-κB transcriptional activity, reporter gene assay in chondrocytes; conditions: for NF-κB activity reduced compared to IL-1β-treated chondrocytes: 1 hour before 10 ng/mL IL-1β; for transcriptional activity of NF-κB increased: 10 ng/mL IL-1β
Experimental: (§1) First, the chondrocytes derived from joints were cultured in a DMEM medium according to a known method (E. H. Hong, et al., J. Biol. Chem. 285:1283-1295, 2010). Then, the cultured chondrocytes were inoculated into culture dishes at a density of 5×10^4 cells/cm^2, which were irradiated with 0 cGy, 0.5 cGy, 1.0 cGy, 1.5 cGy, and 2.0 cGy LDR using a ^137Cs-ray source (KIRMS, Korea), and the levels of type II collagen or Sox-9 protein, which are cartilage-specific differentiation marker proteins, and I-κB or COX-2 protein, which are inflammation-related proteins, were determined via Western blot analysis, and the transcriptional activity of Sox-9 protein and NF-κB, which is affected by I-κB, were determined by reporter gene assay (FIGS. 1a and b).
(§2) Chondrocytes were treated with either 10 ng/mL IL-1β alone, or in a combination of IL-1β treatment and 0.5 cGy or 1 cGy LDR, and the transcript levels of type I collagen, type II collagen, Sox-9, COX-2, and I-κB were measured via PCR using GAPDH as a control and a quantitative real-time PCR analysis, and the transcriptional activity of NF-κB was measured by reporter gene assay (FIGS. 2a, 2b, 2c, and 2d).
Meanwhile, chondrocytes were treated with LY294002, which is another chemical inhibitor of PI3K/Akt signaling, at a concentration of 10 μM or 20 μM, reacted for 1 hour, treated with […] reacted for 48 hours. Upon reaction, the levels of type II collagen, Sox-9, I-κB, and COX-2 proteins were determined via Western blot analysis, and the transcriptional activity of NF-κB was determined by reporter gene assay (FIG. 3c).
Finally, chondrocytes were transfected with 3 μg of the respective catenin plasmid for 24 hours, and untreated (−) or treated with 10 ng/mL, IL-1β (+) for 48 hours. Then, the levels of differentiation- and inflammation-related proteins were determined via Western blot analysis, and the transcriptional activity of NF-κB at 24 hours after IL-1β treatment was determined by reporter gene assay (FIG. 4d).
Additionally, the transcriptional activity of Sox-9 or NF-κB was determined by reporter gene assay, and the experimental results were indicated in terms of mean standard deviation (FIG. 5e). As a result, it was confirmed that LDR can increase the activity of Sox-9 in catenin-overexpressing chondrocytes while reducing the transcriptional activity of NF-κB. Specifically, as shown in FIG. 5e (left), 1 cGy LDR irradiation increased Sox-9 activity by about a 2.2-, 2.7-, and 2.4-fold compared to that in cells transfected with […], and, as shown in FIG. 5e (right), reduced NF-κB activity by about 74%, 78%, and 75%, respectively, thus confirming that LDR has the effect of inhibiting the induction of potential inflammation.

chondrocytes = experiment: Levels of differentiation- and inflammation-related proteins (type II collagen, Sox-9, I-κB, COX-2), Western blot in chondrocytes
Experimental: as §1, with “b). […]” for “b).”
Finally, chondrocytes were transfected with 3 μg of GFP-labeled S83A α-catenin, FLAG-labeled S33A β-catenin, or wild type γ-catenin, reacted with or without treatment with 5 μM or 10 μM BAY 11-7082 for 24 hours, and the levels of I-κB and COX-2 proteins were determined via Western blot analysis (FIG. 5g). […]

COX-2 = COX-2 transcript level by PCR and quantitative real-time PCR in chondrocytes; conditions: 10 ng/mL IL-1β
Experimental: as §2

Akt = experiment: Expression and phosphorylation of Akt and GSK3α/β, Western blot in chondrocytes; conditions: 10 ng/mL IL-1β
[1] = tested on: α-, β-, and γ-catenin proteins; experiment: Levels of catenin proteins, Western blot in chondrocytes; conditions: 10 ng/mL IL-1β for a predetermined period of time
Experimental: First, chondrocytes were treated with 10 ng/mL IL-1β for a predetermined period of time, and the levels of the catenin proteins were determined via Western blot analysis (FIG. 4a).
First, it was examined whether LDR can directly regulate the expression of catenin proteins in chondrocytes. In this regard, chondrocytes, which were in a state untreated or treated with 10 ng/mL IL-1β, were irradiated at varied doses of LDR for 48 hours, and the levels of catenin proteins were determined via Western blot analysis (FIGS. 5a and 5h).
In order to examine whether the inhibitory effect of LDR on chondrocyte disorders is exclusively related to the responses to IL-1β, cells were treated with EGF, PMA, and RA, which are agents known to induce dedifferentiation of chondrocytes. Specifically, chondrocytes were treated or untreated with 10 ng/mL EGF(a), 10 nM PMA(b), and 1 μM RA(c) for 2 hours, treated or untreated with 0.5 cGy or 1 cGy LDR for 36 hours, and the levels of catenin proteins and differentiation/inflammation-related proteins were determined via Western blot analysis (FIGS. 6a, 6b, and 6c).

Sox-9 = Sox-9 transcriptional activity, reporter gene assay in chondrocytes; conditions: 10 ng/mL IL-1β alone
Experimental: as §1, §2
Additionally, the transcriptional activity of Sox-9 or NF-κB was determined by reporter gene assay, and the experimental results were indicated in terms of mean standard deviation (FIG. 5e). […]

[2] = 5 μM or 10 μM, 1 hour before 10 ng/mL IL-1β, 48 hours

O=c1cc(N2CCOCC2)oc2c(-c3ccccc3)cccc12 [LY294002]
NF-κB activity reduced compared to IL-1β-treated chondrocytes (NF-κB; 10 μM): about 48% | NF-κB activity reduced compared to IL-1β-treated chondrocytes (NF-κB; 20 μM): ~68%

Cc1ccc(S(=O)(=O)/C=C/C#N)cc1 [BAY 11-7082]
degradation of I-κB and induction of COX-2 in cells transfected with α-, β- or γ-catenin (chondrocytes; 5 μM or 10 μM for 24 hours, catenin-transfected chondrocytes): reversed | COX-2 protein expression compared to IL-1β-treated chondrocytes (chondrocytes; [2]): reduced COX-2 expression | I-κB degradation (chondrocytes; [2]): inhibited I-κB degradation in a dose-dependent manner

IL-1β: cytokine used at 10 ng/mL to induce dedifferentiation, inflammation and destruction of chondrocytes
level of type II collagen and Sox-9 proteins (chondrocytes; 10 ng/mL IL-1β alone): reduced the level of type II collagen and Sox-9 proteins | level of COX-2 expression increased compared to control group (COX-2; 24 hours after treatment): about 9.8 fold | level of COX-2 expression increased compared to control group (COX-2; 48 hours after treatment): ~7.7 fold | phosphorylation of Akt induced by treatment (Akt): induced the phosphorylation of Akt | NF-κB activity increase, IL-1β treatment alone (NF-κB; 10 ng/mL IL-1β alone, 24 hours after treatment, catenin experiment (FIG. 4d)): about 8.5 fold | transcriptional activity of NF-κB increased (NF-κB; 24 hours after treatment (FIG. 2c)): about 8.6 fold | transcriptional activity of NF-κB increased (NF-κB; 48 hours after treatment (FIG. 2c)): ~6.7 fold | expression of α-, β-, and γ-catenin proteins [1]: expressed in a time-dependent manner | transcriptional activity of Sox-9 reduced compared to control cells (Sox-9; 24 hours after treatment): about 32% | transcriptional activity of Sox-9 reduced compared to control cells (Sox-9; 48 hours after treatment): ~60%

CCCCCCCCCCCCCC(=O)O[C@@H]1[C@@H](C)[C@@]2(O)[C@@H](C=C(CO)C[C@]3(O)C(=O)C(C)=C[C@@H]23)[C@@H]2C(C)(C)[C@]12OC(C)=O [PMA, phorbol 12-myristate 13-acetate]
pathological changes induced by soluble factor (type II collagen, Sox-9, COX-2 proteins) (chondrocytes; 10 ng/mL EGF, 10 nM PMA or 1 μM RA): inhibition of expression of type II collagen and Sox-9 proteins and induction of COX-2 protein expression
